The values that follow come from paper PMC11203575, “The First In Vivo Study Shows That Gyrophoric Acid Changes Behavior of Healthy Laboratory Rats” (International Journal of Molecular Sciences, 2024).

This experiment has as its target T1, human serum albumin (HSA) (Homo sapiens, UniProt P02768).
T1 construct: gene ALB; Albumin from human serum (A1887, Sigma Aldrich)
The experiment is described as follows: intrinsic fluorescence quenching titration (Stern-Volmer), synchronous and 3D fluorescence. Type of experiment: binding. To be noted: read-out: KB × 10^6 (M^-1) (converted).

T1 sequence (P02768 25-609): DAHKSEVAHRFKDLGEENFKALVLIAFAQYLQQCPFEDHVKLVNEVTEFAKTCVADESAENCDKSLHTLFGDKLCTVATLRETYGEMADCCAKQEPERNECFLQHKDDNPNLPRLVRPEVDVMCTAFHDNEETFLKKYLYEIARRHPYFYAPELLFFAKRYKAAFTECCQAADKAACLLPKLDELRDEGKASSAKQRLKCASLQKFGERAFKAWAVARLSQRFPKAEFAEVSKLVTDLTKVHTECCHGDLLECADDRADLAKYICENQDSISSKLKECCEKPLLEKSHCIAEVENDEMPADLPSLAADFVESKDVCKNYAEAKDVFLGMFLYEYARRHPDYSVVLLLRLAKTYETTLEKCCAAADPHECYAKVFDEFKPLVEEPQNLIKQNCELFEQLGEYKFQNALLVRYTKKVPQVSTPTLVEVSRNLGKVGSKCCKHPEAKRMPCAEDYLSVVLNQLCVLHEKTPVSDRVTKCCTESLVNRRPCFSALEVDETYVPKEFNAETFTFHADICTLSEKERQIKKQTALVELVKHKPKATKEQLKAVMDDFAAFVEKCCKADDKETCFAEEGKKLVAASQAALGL

On to `Cc1cc(OC(=O)c2c(C)cc(OC(=O)c3c(C)cc(O)cc3O)cc2O)cc(O)c1C(=O)O` [GA, Gyrophoric acid], for which the Kd is 559 nM.
